From ChEMBL document CHEMBL1157321, “Bioactivity profiling using HPLC/microtiter-plate analysis: application to a New Zealand marine alga-derived fungus, Gliocladium sp” (J Nat Prod, 2006)
Active and inactive are the calls of the source. No cut-off for these calls is given here.

Key:
[1] = test system: Bacillus subtilis; test: Antibacterial activity against Bacillus subtilis at 40 ug/disk; type: functional; details: for zone of inhibition at 40 µg/disc: read-out: IZ
[2] = test system: Trichophyton mentagrophytes; test: Antifungal activity against Trichophyton mentagrophytes at 40 ug/disk; type: functional; details: for zone of inhibition at 40 µg/disc: read-out: IZ
[3] = test system: Amorphotheca resinae; test: Antifungal activity against Cladosporium resinae at 40 ug/disk; type: functional; details: for zone of inhibition at 40 µg/disc: read-out: IZ
[4] = test system: P388; test: Cytotoxicity against mouse P388 cells; type: functional, cell-based

| SMILES | zone of inhibition at 40 µg/disc [1] [mm] | zone of inhibition at 40 µg/disc [2] [mm] | Activity [3] | IC50 [4] [µM] | Activity [1] | Activity [2] | Activity [4] | zone of inhibition at 40 µg/disc [3] [mm] |
| --- | --- | --- | --- | --- | --- | --- | --- | --- |
| C[C@@H]1CCC(=O)/C=C/C(=O)O[C@H](C)C(=O)/C=C/C(=O)O1 | 1 | 1 | inactive | 3.9 | – | – | – | – |
| CC(C)=CCOc1ccc(C[C@H]2NC(=O)[C@H](C)NC(=O)[C@@H](Cc3ccc(O)cc3)NC(=O)CNC(=O)[C@H](C)NC(=O)[C@H](Cc3ccccc3)OC2=O)cc1 | – | – | inactive | – | inactive | inactive | inactive | – |
| C[C@@H]1CCC(=O)/C=C/C(=O)O[C@H](C)[C@@H](O)/C=C/C(=O)O1 | 3 | 3 | – | 1.9 | – | – | – | 5 |
| C[C@@H]1CC[C@@H](O)/C=C/C(=O)O[C@H](C)C(=O)/C=C/C(=O)O1 | 6 | 2 | – | 0.55 | – | – | – | 1 |
| C[C@@H]1CC[C@@H](O)/C=C/C(=O)O[C@H](C)[C@@H](O)/C=C/C(=O)O1 [CLONOSTACHYDIOL] | – | – | inactive | 25 | inactive | inactive | – | – |
